According to patent publication US11459358B2, “Substances for targeting various selected organs or tissues” (BioMarin Technologies B.V., priority 2016, dated 2022):
“Also recorded” adds a separate entry of the source.

What was measured:
[1] = system: Human control myotubes; experiment: Uptake of FITC-labeled peptides in human control myotubes, fluorescence microscopy; assay type: cell-based; conditions: 2.25 μM FITC-labeled peptide
Protocol: Human control myoblasts (Km155.c25 cells, (Zhu et al., 2007)) were grown in skeletal muscle cell growth medium (Promocell, C-23160) supplemented with an extra 15% FBS (from, Gibco, the Netherlands) and 50 μg/ml gentamicin (PAA Laboratories) in uncoated flasks until 70-80% confluence was reached. Cells were plated in a 6 wells plate with 0.5% gelatin coated glass slides (Sigma Aldrich, the Netherlands), at a density of 1×10^5 cells per well, 48 hours prior to differentiation. Reaching 90% confluence, medium was switched to differentiation medium (Dulbecco's medium (without phenol red) with 2% FBS, 50 μg/ml gentamicin, 2% glutamax and 1% glucose (all from Gibco-BRL, the Netherlands)). Cells were allowed to differentiate for 3-5d.
(§1) Fluorescently labeled peptides were labeled using fluorescein isothiocyanate (FITC) and were obtained from Pepscan (Lelystad, the Netherlands). The FITC-label was attached to an Ahx (6-aminohexanoic acid) spacer which was added to the N-terminal end of the peptide, the C-terminal part was amidated and peptides were made circular by disulfide cyclization. Peptides according to the invention had cysteine flanking moieties wherein the flanking moieties were directly adjacent to the targeting sequences SEQ ID NOs: 14-25.
Human control myotubes and primary human cardiomyocytes were washed 2 times with PBS and incubated with 2.25 μM of FITC-labeled peptides in serum free media for 3 h at 37° C. and 5% CO2. Cells were washed 3 times with PBS and fixed with cold methanol (−20° C.) for 5 min (human control myotubes) or 10 min (human cardiomyocytes). Subsequently the glass slides were shortly air dried, and embedded on microscope slides with Vectashield hard set with 4′,6-diamidino-2-phenylindole (DAPI) mounting media (Vector laboratories). After drying 30 min, slides were analyzed with fluorescence microscopy (Leica DM5500 B) using a CCD camera (Leica DFC 360 FX). Representative pictures are shown. […]
The linear versions of the peptides comprising SEQ ID NO: 24 or SEQ ID NO: 25, in which the Cys residues were replaced with Ala residues, were labelled as described above and incubated with human control myotubes for 3 h (FIG. 3d).

[2] = system: human cardiomyocytes; experiment: Uptake of FITC-labeled peptides in human cardiomyocytes, fluorescence microscopy; assay type: cell-based; conditions: 2.25 μM FITC-labeled peptide
Protocol: Immortalized human cardiomyocytes (applied biological materials, Canada) were grown in Prigrow I medium supplemented with 10% FBS and 1% P/S in collagen coated flasks. Cells were plated in collagen coated glass slides in 6 wells plates and grown until confluence prior to experiments.
as §1
Human control myotubes and primary human cardiomyocytes were washed 2 times with PBS and incubated with 2.25 μM of FITC-labeled peptides in serum free media for 3 h at 37° C. and 5% CO2. Cells were washed 3 times with PBS and fixed with cold methanol (−20° C.) for 5 min (human control myotubes) or 10 min (human cardiomyocytes). Subsequently the glass slides were shortly air dried, and embedded on microscope slides with Vectashield hard set with 4′,6-diamidino-2-phenylindole (DAPI) mounting media (Vector laboratories). After drying 30 min, slides were analyzed with fluorescence microscopy (Leica DM5500 B) using a CCD camera (Leica DFC 360 FX). Representative pictures are shown.
FITC-labeled peptides comprising SEQ ID NO:24 or SEQ ID NO: 25 were incubated at a dose of 2.25 μM, slides were imbedded in mounting media containing DAPI and analyzed with Leica microscopy using a CCD camera (Leica DFC 360 FX); Human control myotubes for 1 or 3 h (FIG. 3a) and human cardiomyocytes for 3 h (FIG. 3b).

Substance	fluorescence in the cells ([1]; 1 h)	fluorescence in the cells ([1]; 3 h)	fluorescence in the cells ([1]; 3 h, listed as SEQ ID NO:24)	fluorescence in the cells ([2]; 3 h)	fluorescence in the cells ([2]; 3 h, listed as SEQ ID NO:24)	fluorescence in the cells ([1]; 10 minutes)	fluorescence in the cells ([2]; 10 minutes)
SEQ ID NO: 24: FITC-Ahx N-terminal, C-terminal amide, disulfide-cyclized peptide with Cys residues flanking targeting sequence LNSLFGS (N-terminal FITC-Ahx, C-terminal amide, disulfide cyclized; Randomly generated peptide)	clear fluorescence throughout the cells and in the nuclei	Brightest fluorescence	clear fluorescence throughout the cells and in the nuclei	Brightest fluorescence	clear fluorescence throughout the cells and in the nuclei	–	–
SEQ ID NO: 25: FITC-Ahx N-terminal, C-terminal amide, disulfide-cyclized peptide with Cys residues flanking targeting sequence QLFPLFR (N-terminal FITC-Ahx, C-terminal amide, disulfide cyclized; Randomly generated peptide)	clear fluorescence throughout the cells and in the nuclei	Brightest fluorescence; also recorded: clear fluorescence throughout the cells and in the nuclei	–	Brightest fluorescence; also recorded: clear fluorescence throughout the cells and in the nuclei	–	positive fluorescence	positive fluorescence
